Laboratory results published in patent publication US20060188895A1, “Rapid prognostic assay for malignancies treated with epidermal growth factor receptor” (The Johns Hopkins University, priority 2004, published 2006).
“And” between values parts separate entries of the source, which are not always exact repeats. Equal entries are not always repeated.

What was measured:
Cal27 cells (c-fos mRNA) = experiment: in vitro c-fos mRNA expression by quantitative RT-PCR; type: cell-based, human; details: for c-fos after longer exposure: 24-hour exposure
Description: (§1) Five cell lines were used: A431, Cal27, HN11, HuCCT1, and Hep2. HN11 was a gift from Dr David Sidranski's laboratory at Johns Hopkins University (Baltimore, Md.), and A431, Cal27, HuCCT1, and Hep2 were obtained from the American Tissue Culture Collection (Manassas, Va.). A431 is a squamous cell carcinoma, Cal27, HN11 and Hep2 are derived from head and neck squamous carcinomas, and HuCCT1 is a cholangiocarcinoma. The cell lines were grown in 6-well plates with DMEM supplemented with 10% fetal bovine serum (FBS) and penicillin/streptomycin. […] The cells were incubated for 1 hour, media was aspirated, and RNA collected by direct in-well lysis with 0.5 mL of RLT (Qiagen). […] IN VITRO GROWTH INHIBITION STUDIES
(§2) In vitro RNA extraction was performed on non-confluent cells after treatment. Wells were washed with PBS and RLT lysis buffer was added. Two passes from the FNA were put in lysis buffer (Mini Rneasy manufactured by Qiagen) loaded onto a column, washed and eluted into 50 μl TE pH8. Total RNA was extracted using the RNeasy™ Mini Kit (Qiagen, Valencia, Calif.). RNA was transcribed into cDNA by reverse transcription by priming with random hexamers (M-MLTV manufactured by Promega located in Madison, Wis.). The excess hexamers were removed using a column-based clean-up kit (Qiagen).
(§3) Quantitative PCR was performed on an MX3000p thermal cycler (Stratagene) using SYBR green dye method to track the progress of the reactions with ROX dye added as reference. Beta-Globin DNA specific primers were used to test DNA contamination for each sample type. Three housekeeping genes (HPRT, UBC and SDHA) were run in parallel with test genes. The amount of change in the target gene between the control and experimental conditions was found by comparing the threshold cycle (Ct) of the target gene to the geometric mean of the threshold cycles of the housekeeping genes. The geometric mean of the Cts of each of the housekeeping genes, and a change in threshold cycle (delta Ct), between conditions were calculated (dCtHouskeeping=(CtHPRT*CtUBC*CtSDHA)control−(CtHPRT*CtUBC*CtSDHA)exp). The change in threshold cycle for the target gene was calculated directly from Ct under each condition (dCttarget=(Cttarget)control−(Cttarget)exp). The efficiency of the […] raised to its dCt gave a ratio between the control and experimental conditions normalized to the housekeeping genes (Ratio=ETarget^dCtTarget/EHousekeeping^dctHousekeeping, where E=Primer efficiency, and Ct=Threshold cycle).

HN11 cells (c-fos mRNA) = experiment: as above; type: cell-based, human; details: for c-fos after longer exposure: 24-hour exposure
Description: as §1, §2, §3

Hep2 cells (c-fos mRNA) = experiment: as above; type: cell-based, human; details: for c-fos levels with time compared to baseline: 24-hour exposure
Description: as §1, §2, §3

[1] = system: HuCCT1 cells (c-fos mRNA); experiment: as above; type: cell-based, human; details: for c-fos levels with time compared to baseline: 24-hour exposure
Description: as §1, §2, §3

A431 xenograft tumors = experiment: in vivo growth inhibition and tumor c-fos, xenograft; design: species or system athymic nude mice
Description: (§4) Five groups of 14-16 six-week-old female athymic nude mice (Harlan, Ind., US) were used. 1.5-5×10^6 A431, CAL27, HN11, HuCCT1, and Hep2 cells were injected subcutaneously in each flank. […].
(§5) FNAs on mice were performed according to standard cytopathologic practice under inhaled general anesthesia (isofluorane) using 10 cc syringes and 25-gauge needles. During each FNA procedure the first pass was smeared onto glass slides and used for morphologic analysis, (DiffQuik™ and Papanicoloau), and the second and third passes for RNA extraction. Eighteen A431 tumors, fourteen CAL27 tumors, eighteen HN11 tumors, fourteen HuCCT1 tumors, and sixteen Hep2 tumors were tested. FNAs were performed at baseline and after 14 days of therapy for each of the tumors. Tumor biopsies on patients were performed following an ultrasonographic-guided, FNA-assisted methodology, with on-site cytopathologic assessment of tissue adequacy at baseline and after 28 days of therapy.
as §2, §3

HuCCT1 xenograft tumors = experiment: as above; design: species or system athymic nude mice
Description: as §4, §5, §2, §3

[2] = system: c-fos in patient tumor samples; experiment: c-fos in paired patient tumor samples; type: in vivo, patients
Description: as §5, with “therapy. […]” for “therapy.”
(§6) Quantitative PCR was performed on an MX3000p thermal cycler (Stratagene) using SYBR green dye method to track the progress of the reactions with ROX dye added as reference. […] The geometric mean of the Cts of each of the housekeeping genes, and a change in threshold cycle (delta Ct), between conditions were calculated (dCtHouskeeping=(CtHPRT*CtUBC*CtSDHA)control−(CtHPRT*CtUBC*CtSDHA)exp). The change in threshold cycle for the target gene was calculated directly from Ct under each condition (dCttarget=(Cttarget)control−(Cttarget)exp). […]

[3] = system: Ki67 proliferation index in patient tumor samples; experiment: Ki67 proliferation index in paired patient tumor samples (immunohistochemistry); type: in vivo, patients; details: patient #3; 500 mg/day (FIG. 7 legend)
Description: FNAs on mice were performed according to standard cytopathologic practice under inhaled general anesthesia (isofluorane) using 10 cc syringes and 25-gauge needles. During each FNA procedure the first pass was smeared onto glass slides and used for morphologic analysis, (DiffQuik™ and Papanicoloau), and the second and third passes for RNA extraction. […] FNAs were performed at baseline and after 14 days of therapy for each of the tumors. Tumor biopsies on patients were performed following an ultrasonographic-guided, FNA-assisted methodology, with on-site cytopathologic assessment of tissue adequacy at baseline and after 28 days of therapy.
Core biopsies from patients were processed using standard procedures (formalin-fixed, and paraffin embedded). Five-micron sections were used for Ki67 staining that was performed following the manufacturer's instructions (M7187 manufactured by DAKO located in Carpinteria, Calif.).

[4] = system: metastatic or inoperable malignancy; experiment: clinical response of patients treated with gefitinib; type: in vivo; details: five patients; 500 mg daily; 2, 4, 2, 2 and 5+ 1-month cycles
Description: Patients were required to be 18 years of age or older, and have histologically documented metastatic or inoperable malignancy amenable to sequential biopsies, and for which there was no known curative or standard palliative regimen (or failure of such regimens have occurred). […] The scientific review board of our institution granted protocol approval and patients were required to provide written informed consent prior to enrollment into the study.

A431 cells (c-fos mRNA) = experiment: in vitro c-fos mRNA expression by quantitative RT-PCR; type: cell-based, human
Description: Five cell lines were used: A431, Cal27, HN11, HuCCT1, and Hep2. […] The cell lines were grown in 6-well plates with DMEM supplemented with 10% fetal bovine serum (FBS) and penicillin/streptomycin. […] The cells were incubated for 1 hour, media was aspirated, and RNA collected by direct in-well lysis with 0.5 mL of RLT (Qiagen).
In vitro RNA extraction was performed on non-confluent cells after treatment. Wells were washed with PBS and RLT lysis buffer was added. […] Total RNA was extracted using the RNeasy™ Mini Kit (Qiagen, Valencia, Calif.). RNA was transcribed into cDNA by reverse transcription by priming with random hexamers (M-MLTV manufactured by Promega located in Madison, Wis.). The excess hexamers were removed using a column-based clean-up kit (Qiagen).
Quantitative PCR was performed on an MX3000p thermal cycler (Stratagene) using SYBR green dye method to track the progress of the reactions with ROX dye added as reference. Beta-Globin DNA specific primers were used to test DNA contamination for each sample type. […] The geometric mean of the Cts of each of the housekeeping genes, and a change in threshold cycle (delta Ct), between conditions were calculated (dCtHouskeeping=(CtHPRT*CtUBC*CtSDHA)control−(CtHPRT*CtUBC*CtSDHA)exp). The change in threshold cycle for the target gene was calculated directly from Ct under each condition (dCttarget=(Cttarget)control−(Cttarget)exp).

Cal27 cells = type: cell-based, human; details: CAL27 (EGF-inducible c-fos line); 0-10 μM, 72 hours, 10% FBS
HN11 cells = type: cell-based, human; details: HN11 (EGF-inducible c-fos line); 0-10 μM, 72 hours, 10% FBS
HuCCT1 cells = experiment: cells; type: cell-based; details: Homo sapiens, HuCCT-1, MTT, 72 hours, 10% FBS, read-out: IC50 growth inhibition
Hep2 cells = experiment: cells; type: cell-based; details: Homo sapiens, HEp-2, MTT, 72 hours, 10% FBS, read-out: IC50 growth inhibition
[5] = system: CAL27 xenograft tumors (c-fos mRNA); experiment: ex vivo molecular assay (c-fos) on FNA material; type: cell-based, mice; details: FNA material from seven CAL27 xenograft tumors; with EGF, 30 to 60 minutes
Description: as §5
In vitro RNA extraction was performed on non-confluent cells after treatment. […]
as §6

CAL27 xenograft tumors = experiment: in vivo growth inhibition and tumor c-fos, xenograft; design: species or system athymic nude mice
Description: as §4, §5, §2, §3

HN11 xenograft tumors = experiment: as above; design: species or system athymic nude mice
Description: as §4, §5, §2, §3

Hep2 xenograft tumors = experiment: as above; design: species or system athymic nude mice
Description: as §4, §5, §2, §3

[6] = 10 μM, 1-hour exposure, with EGF
[7] = 100 mgr/kg IP once a day for 14 days
[8] = day 14 treated vs control, P<0.05
[9] = EGF 100 ng/mL, normalized to media
[10] = 50 mgr/kg IP once a day for 14 days

## COc1cc2ncnc(Nc3ccc(F)c(Cl)c3)c2cc1OCCCN1CCOCC1 [gefitinib]
Cal27 cells (c-fos mRNA); [6]
  effect on EGF-induced c-fos increment: abrogated
Cal27 cells (c-fos mRNA)
  c-fos after longer exposure: lasting c-fos downregulation
Cal27 cells (c-fos mRNA); without EGF, 1 hour
  effect of drug alone on c-fos levels: decreased c-fos levels
HN11 cells (c-fos mRNA); [6]
  effect on EGF-induced c-fos increment: abrogated
HN11 cells (c-fos mRNA)
  c-fos after longer exposure: lasting c-fos downregulation
HN11 cells (c-fos mRNA); without EGF, 1 hour
  effect of drug alone on c-fos levels: decreased c-fos levels
Hep2 cells (c-fos mRNA)
  c-fos levels with time compared to baseline: minimally increased
Hep2 cells (c-fos mRNA); without EGF, 1 hour
  effect of drug alone on c-fos levels: no effect
[1]
  c-fos levels with time compared to baseline: minimally increased
[1]; without EGF, 1 hour
  effect of drug alone on c-fos levels: no effect
A431 xenograft tumors; [7]
  tumor growth: growth arrest
A431 xenograft tumors; [8]
  effect on progressive increase in tumor c-fos expression: significantly abrogate
HuCCT1 xenograft tumors; [7]
  tumor growth response: no response
HuCCT1 xenograft tumors; 14 days of therapy
  tumor c-fos levels: unchanged
[2]; patient #3, 500 mg/day (FIG. 7 legend)
  change in c-fos: increase
[2]; two patients with decrease, 500 mg daily
  tumor c-fos after 28 days, of baseline values: 56% and 37%
[3]
  reduction of Ki67: 45%
[4]
  objective response: No objective, confirmed responses

## EGF: human epidermal growth factor 100 ng/mL (EGF; Sigma), EGFR ligand used as stimulus
A431 cells (c-fos mRNA); [9]
  c-fos mRNA level after brief exposure to EGF: 126 fold
Cal27 cells (c-fos mRNA); [9]
  c-fos mRNA level after brief exposure to EGF: 151 fold
HN11 cells (c-fos mRNA); [9]
  c-fos mRNA level after brief exposure to EGF: 86 fold
Hep2 cells (c-fos mRNA); [9]
  c-fos increase upon exposure to EGF: 4.1 fold
[1]; [9]
  c-fos increase upon exposure to EGF: 3.6 fold

## C#Cc1cccc(Nc2ncnc3cc(OCCOC)c(OCCOC)cc23)c1 [erlotinib]
A431 cells (c-fos mRNA); 24-hour exposure
  c-fos after longer exposure: lasting c-fos downregulation
Cal27 cells (c-fos mRNA)
  c-fos after longer exposure: lasting c-fos downregulation
HN11 cells (c-fos mRNA)
  c-fos after longer exposure: lasting c-fos downregulation
Hep2 cells (c-fos mRNA)
  c-fos levels with time compared to baseline: minimally increased
[1]
  c-fos levels with time compared to baseline: minimally increased
Cal27 cells
  in vitro sensitivity (growth inhibition, MTT): high
HN11 cells
  in vitro sensitivity (growth inhibition, MTT): high
HuCCT1 cells
  IC50: > 10 µM
Hep2 cells
  IC50: > 10 µM
[5]
  effect on EGF-induced c-fos upregulation: abrogation of this response
CAL27 xenograft tumors; [10]
  tumor growth: growth arrest
CAL27 xenograft tumors; day 14 treated vs control, P=0.07
  effect on progressive increase in tumor c-fos expression: significantly abrogate
HN11 xenograft tumors; [10]
  tumor growth: growth arrest
HN11 xenograft tumors; [8]
  effect on progressive increase in tumor c-fos expression: significantly abrogate
Hep2 xenograft tumors; [10]
  tumor growth response: no response
Hep2 xenograft tumors; 14 days of therapy
  tumor c-fos levels: unchanged
